Laboratory results published in EP1593384A2, “Compositions for treatment of sexual dysfunction” (Palatin Technologies, Inc., priority 1999, dated 2005).

Key:
Sprague Dawley rats [1] = experiment: Induced penile erection by intravenous injection; type: in vivo; conditions: for dose resulting in (equivalent) penile response: intravenous injection in rats; for efficacious dose, efficacy determined by induction of penile erection in 100% of animals: intravenous injection, rats; for % Rats with Penile Erection / Number of Erections/Rat/30 Minutes: intravenous
MC1-R = conditions: read-out: RELATIVE BINDING (KI) MC1-R; competitive inhibition; B16-F1 melanoma cells as receptor source
Description: (§1) Relative binding was determined by competitive inhibition using α-MSH. B16-F1 melanoma cells were used as the source of MC1 receptors; HEK 293 cells, transfected with human melanocortin receptor sequences, were used as the source of MC3, MC4 and MC5 receptors; and Y1 cells were used as the source of MC2 receptors.

MC3-R = conditions: read-out: RELATIVE BINDING (KI) MC3-R; competitive inhibition; transfected HEK 293 cells
Description: as §1

MC5-R = conditions: read-out: RELATIVE BINDING (KI) MC5-R; competitive inhibition; transfected HEK 293 cells
Description: as §1

[2] = test system: men with psychogenic erectile dysfunction; conditions: subcutaneous, 0.025 to 0.157 mg/kg body weight; cited from earlier work
Sprague Dawley rats [3] = experiment: Induced penile erection by intranasal administration (dosing study); type: in vivo; conditions: for % Rats with Penile Erection / Number of Erections/Rat/30 Minutes: intranasal
human MC4-R = experiment: Agonist activity by cAMP detection in transfected HEK 293 cells; type: cell-based; conditions: conclusion from cAMP results
Description: HEK 293 cells, stably transfected with human MC4-R, were used. […] Following incubation, the medium was aspirated and cell layers extracted. The total cAMP accumulation in fixed quantities of cell extract was determined by competitive immunoassay using the cAMP kit.

| Substance | dose resulting in (equivalent) penile response (Sprague Dawley rats [1]) | efficacious dose, efficacy determined by induction of penile erection in 100% of animals (Sprague Dawley rats [1]) | % Rats with Penile Erection (Sprague Dawley rats [1]; dose 10.0 µg/kg) [%] | Number of Erections/Rat/30 Minutes (Sprague Dawley rats [1]; dose 10.0 µg/kg) | % Rats with Penile Erection (Sprague Dawley rats [1]; dose 100.0 µg/kg) [%] | Number of Erections/Rat/30 Minutes (Sprague Dawley rats [1]; dose 100.0 µg/kg) | Ki (MC1-R) [nM] | Ki (MC3-R) [nM] | Ki (MC5-R) [nM] | treated men developing clinically apparent erections [2] | % Rats with Penile Erection (Sprague Dawley rats [3]; dose 100 µg/kg) [%] | Number of Erections/Rat/30 Minutes (Sprague Dawley rats [3]; dose 100 µg/kg) | % Rats with Penile Erection (Sprague Dawley rats [3]; dose 500 µg/kg) [%] | Number of Erections/Rat/30 Minutes (Sprague Dawley rats [3]; dose 500 µg/kg) | period in which the penile erection response primarily occurred (Sprague Dawley rats [3]; nasal administration, rats, 30 minutes) | agonist activity to MC4-R (human MC4-R) |
| --- | --- | --- | --- | --- | --- | --- | --- | --- | --- | --- | --- | --- | --- | --- | --- | --- |
| Melanotan-II | 100 µg/kg of body weight | ≥ 100 µg/kg of body weight | 17 | 0.3 | 75 | 1.0 | 0.12 | 23.7 | 69.5 | 8 of 10 | 25 | 0.25 | 100 | 1.0 | 2nd and 3rd ten-minute period |  |
| Ac-Nle-cyclo(-Asp-His-D-Phe-Arg-Trp-Lys)-OH [Compound 1] | 2 µg/kg of body weight | ≥ 1 µg/kg of body weight |  |  |  |  |  |  |  |  |  |  |  |  |  | exhibits agonist activity |
